Data reported in patent US20230143604A1, “QW DOSING OF GIP RECEPTOR AGONIST PEPTIDE COMPOUNDS AND USES THEREOF” (TAKEDA PHARMACEUTICAL COMPANY LIMITED, priority 2020, published 2023).
Starred links: 1 amine or outer side, 2 acyl side, 3 side chain; linkers in the order of their positions; H or OH if unused. Positions of bridges follow the written chain, without caps; N, C: chain ends. Non-standard residues stand in square brackets, D forms with d. Residues, ends and D or L forms follow the SMILES beside them. Groups on a side chain read outwards from the residue. Chains are numbered I, II in the order given. *: point of attachment. C18 diacid = O=C(O)CCCCCCCCCCCCCCCCC(=O)*; γGlu = O=C(O)[C@H](CCC(=O)[*:2])N[*:1]; NMeY = CN[C@@H](Cc1ccc(O)cc1)C(=O)O; AEEA = NCCOCCOCC(=O)O; Aib = CC(C)(N)C(=O)O

Assay: Solubility in phosphate buffer pH 7.4
Summary of the method: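 3 mg of peptide treated with 100 μL portions of 200 mM phosphate buffer pH 7.4, sonicating/vortexing up to 1 min, with further buffer added until fully dissolved. Solubility then quantified by HPLC.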

[1] = pH 7.4, aqueous buffer, pH 7.4 Phosphate Buffer - Solubility, 200 mM Phosphate buffer pH 7.4
[2] = pH 7.4, solubility in phosphate buffer at pH 7.4, 200 mM phosphate buffer pH 7.4

| Structure (SMILES) | solubility [1] [mg/mL] | solubility [2] [mg/mL] | solubility (pH 7.4) [mg/mL] | solubility (pH 7.4, aqueous buffer) [mg/mL] |
| --- | --- | --- | --- | --- |
| CC[C@H](C)[C@H](NC(=O)[C@H](Cc1ccccc1)NC(=O)[C@@H](NC(=O)CNC(=O)[C@H](CCC(=O)O)NC(=O)C(C)(C)NC(=O)[C@H](Cc1ccc(O)cc1)NC)[C@@H](C)O)C(=O)N[C@@H](CO)C(=O)N[C@@H](CC(=O)O)C(=O)N[C@@H](Cc1ccc(O)cc1)C(=O)N[C@@H](CO)C(=O)N[C@H](C(=O)NC(C)(C)C(=O)N[C@@H](CC(C)C)C(=O)N[C@@H](CC(=O)O)C(=O)N[C@@H](CCCNC(=N)N)C(=O)NC(C)(C)C(=O)N[C@@H](C)C(=O)N[C@@H](C)C(=O)NC(C)(C)C(=O)N[C@@H](CCCCNC(=O)COCCOCCNC(=O)COCCOCCNC(=O)CC[C@H](NC(=O)CC[C@H](NC(=O)CCCCCCCCCCCCCCCCC(=O)O)C(=O)O)C(=O)O)C(=O)N[C@@H](Cc1ccccc1)C(=O)N[C@H](C(=O)N[C@@H](CC(N)=O)C(=O)N[C@@H](Cc1c[nH]c2ccccc12)C(=O)N[C@@H](CC(C)C)C(=O)N[C@@H](CC(C)C)C(=O)N[C@@H](C)C(=O)N[C@@H](CCC(N)=O)C(=O)N[C@@H](CO)C(=O)N1CCC[C@H]1C(=O)N[C@@H](CO)C(=O)N[C@@H](CO)C(=O)NCC(=O)N[C@@H](C)C(=O)N1CCC[C@H]1C(=O)N1CCC[C@H]1C(=O)N1CCC[C@H]1C(=O)N[C@@H](CO)C(N)=O)C(C)C)[C@@H](C)CC [Compound 107] (H-[NMeY][Aib]EGTFISDYSI[Aib]LDR[Aib]AA[Aib]K([AEEA-AEEA-γGlu-γGlu-C18 diacid])FVNWLLAQSPSSGAPPPS-NH2) | ≥ 60 | ≥ 15 |  |  |
| CC[C@H](C)[C@H](NC(=O)[C@H](Cc1ccccc1)NC(=O)[C@@H](NC(=O)CNC(=O)[C@H](CCC(=O)O)NC(=O)C(C)(C)NC(=O)[C@H](Cc1ccc(O)cc1)NC)[C@@H](C)O)C(=O)N[C@@H](CO)C(=O)N[C@@H](CC(=O)O)C(=O)N[C@@H](Cc1ccc(O)cc1)C(=O)N[C@@H](CO)C(=O)N[C@H](C(=O)NC(C)(C)C(=O)N[C@@H](CC(C)C)C(=O)N[C@@H](CC(=O)O)C(=O)N[C@@H](CCCNC(=N)N)C(=O)NC(C)(C)C(=O)N[C@@H](CCCCNC(=O)COCCOCCNC(=O)COCCOCCNC(=O)CC[C@H](NC(=O)CC[C@H](NC(=O)CCCCCCCCCCCCCCCCC(=O)O)C(=O)O)C(=O)O)C(=O)N[C@@H](C)C(=O)NC(C)(C)C(=O)N[C@@H](CC(N)=O)C(=O)N[C@@H](Cc1ccccc1)C(=O)N[C@H](C(=O)N[C@@H](CC(N)=O)C(=O)N[C@@H](Cc1c[nH]c2ccccc12)C(=O)N[C@@H](CC(C)C)C(=O)N[C@@H](CC(C)C)C(=O)N[C@@H](C)C(=O)N[C@@H](CCC(N)=O)C(=O)N[C@@H](CO)C(=O)N1CCC[C@H]1C(=O)N[C@@H](CO)C(=O)N[C@@H](CO)C(=O)NCC(=O)N[C@@H](C)C(=O)N1CCC[C@H]1C(=O)N1CCC[C@H]1C(=O)N1CCC[C@H]1C(=O)N[C@@H](CO)C(N)=O)C(C)C)[C@@H](C)CC [Compound 109] (H-[NMeY][Aib]EGTFISDYSI[Aib]LDR[Aib]K([AEEA-AEEA-γGlu-γGlu-C18 diacid])A[Aib]NFVNWLLAQSPSSGAPPPS-NH2) | ≥ 60 | ≥ 15 |  |  |
| CC[C@H](C)[C@H](NC(=O)[C@H](Cc1ccccc1)NC(=O)[C@@H](NC(=O)CNC(=O)[C@H](CCC(=O)O)NC(=O)C(C)(C)NC(=O)[C@H](Cc1ccc(O)cc1)NC)[C@@H](C)O)C(=O)N[C@@H](CO)C(=O)N[C@@H](CC(=O)O)C(=O)N[C@@H](Cc1ccc(O)cc1)C(=O)N[C@@H](CO)C(=O)N[C@H](C(=O)NC(C)(C)C(=O)N[C@@H](CC(C)C)C(=O)N[C@@H](CC(=O)O)C(=O)N[C@@H](CCCNC(=N)N)C(=O)NC(C)(C)C(=O)N[C@@H](C)C(=O)N[C@@H](CCC(N)=O)C(=O)NC(C)(C)C(=O)N[C@@H](CCCCNC(=O)COCCOCCNC(=O)COCCOCCNC(=O)CC[C@H](NC(=O)CC[C@H](NC(=O)CCCCCCCCCCCCCCCCC(=O)O)C(=O)O)C(=O)O)C(=O)N[C@@H](Cc1ccccc1)C(=O)N[C@H](C(=O)N[C@@H](CCC(=O)O)C(=O)N[C@@H](Cc1c[nH]c2ccccc12)C(=O)N[C@@H](CC(C)C)C(=O)N[C@@H](CC(C)C)C(=O)N[C@@H](C)C(=O)N[C@@H](CCC(N)=O)C(=O)N[C@@H](CCCCN)C(=O)NCC(=O)O)C(C)C)[C@@H](C)CC [Compound 110] (H-[NMeY][Aib]EGTFISDYSI[Aib]LDR[Aib]AQ[Aib]K([AEEA-AEEA-γGlu-γGlu-C18 diacid])FVEWLLAQKG-OH) |  |  | ≥ 15 | ≥ 60 |
| CC[C@H](C)[C@H](NC(=O)[C@H](CO)NC(=O)[C@H](Cc1ccc(O)cc1)NC(=O)[C@H](CC(=O)O)NC(=O)[C@H](CO)NC(=O)[C@@H](NC(=O)[C@H](Cc1ccccc1)NC(=O)[C@@H](NC(=O)CNC(=O)[C@H](CCC(=O)O)NC(=O)C(C)(C)NC(=O)[C@H](Cc1ccc(O)cc1)NC)[C@@H](C)O)[C@@H](C)CC)C(=O)N[C@@H](C)C(=O)N[C@@H](CC(C)C)C(=O)N[C@@H](CC(=O)O)C(=O)N[C@@H](CCCNC(=N)N)C(=O)NC(C)(C)C(=O)N[C@@H](C)C(=O)N[C@@H](CCC(N)=O)C(=O)NC(C)(C)C(=O)N[C@@H](CCCCNC(=O)CNC(=O)CNC(=O)[C@@H]1CCCN1C(=O)[C@H](C)NC(=O)[C@@H]1CCCN1C(=O)[C@H](C)NC(=O)[C@@H]1CCCN1C(=O)CC[C@H](NC(=O)CCCCCCCCCCCCCCCCC(=O)O)C(=O)O)C(=O)N[C@@H](Cc1ccccc1)C(=O)N[C@H](C(=O)N[C@@H](CC(N)=O)C(=O)N[C@@H](Cc1c[nH]c2ccccc12)C(=O)N[C@@H](CC(C)C)C(=O)N[C@@H](CC(C)C)C(=O)N[C@@H](C)C(=O)N[C@@H](CCC(N)=O)C(=O)N[C@@H](CO)C(=O)N1CCC[C@H]1C(=O)NCC(=O)O)C(C)C [Compound 117] (I: H-[NMeY][Aib]EGTFISDYSIALDR[Aib]AQ[Aib]KFVNWLLAQSPG-OH / II: {C18 diacid-γGlu}-PAPAPGG; amide I:21-II:C) |  |  | ≥ 15 | ≥ 30 |
| CC[C@H](C)[C@H](NC(=O)[C@H](CO)NC(=O)[C@H](Cc1ccc(O)cc1)NC(=O)[C@H](CC(=O)O)NC(=O)[C@H](CO)NC(=O)[C@@H](NC(=O)[C@H](Cc1ccccc1)NC(=O)[C@@H](NC(=O)CNC(=O)[C@H](CCC(=O)O)NC(=O)C(C)(C)NC(=O)[C@H](Cc1ccc(O)cc1)NC)[C@@H](C)O)[C@@H](C)CC)C(=O)N[C@@H](C)C(=O)N[C@@H](CCCCNC(=O)CNC(=O)CNC(=O)CNC(=O)CNC(=O)CNC(=O)CCCCCCCCCCCCCCCCC(=O)O)C(=O)N[C@@H](CC(=O)O)C(=O)N[C@@H](CCCNC(=N)N)C(=O)NC(C)(C)C(=O)N[C@@H](C)C(=O)N[C@@H](CCC(N)=O)C(=O)NC(C)(C)C(=O)N[C@@H](CC(=O)O)C(=O)N[C@@H](Cc1ccccc1)C(=O)N[C@H](C(=O)N[C@@H](CCC(=O)O)C(=O)N[C@@H](Cc1c[nH]c2ccccc12)C(=O)N[C@@H](CC(C)C)C(=O)N[C@@H](CC(C)C)C(=O)N[C@@H](C)C(=O)N[C@@H](CCC(N)=O)C(=O)N[C@@H](CO)C(=O)N1CCC[C@H]1C(=O)NCC(=O)O)C(C)C [Compound 118] |  |  | ≥ 15 | ≥ 30 |
